“Also recorded” adds a separate entry of the source.
Columns and labels:
[1] = test system: EPO dependent UT-7/EPO cell line; experiment: in vitro bioactivity assay: UT-7/EPO cell viability after rHuEPO withdrawal (MTS); type: cell-based, human
Description: The activity of EMP-NfusCG1 was first tested in an in vitro bioactivity assay. For this assay, the EPO dependent UT-7/EPO cell line, derived from a patient with acute megakaryoblastic leukemia, was used (Komatsu et al., 1993, Blood, vol. 82 (2), 456-464). These cells undergo programmed cell death 48 to 72 hours after withdraw from media supplemented with rHuEPO. Cells that have been incubated in the absence of rHuEPO for 24 hours can be saved if treated with rHuEPO or an EPO agonist. EMP-NfusCG1 was added to cells starved without rHuEPO and cell viability was determined 48 hours after treatment using the tetrazolium compound MTS (CellTiter 96 Aqueous One Solution, Promega) that is metabolized by living cells to yield a product with an absorbance that can be measured. […] In addition, these same cells were stimulated with EMP-NfusCG1 and tyrosine phosphorylation patterns visualized by running cell lysate through a polyacrylamide gel.

[2] = test system: normal mice; experiment: in vivo erythropoiesis (hematocrit) in normal mice; details: equal activity units
Description: (§1) In vivo studies were done in normal mice to compare the half-life of EMP-NfusCG1 to that of rHuEPO and to compare their effects on erythropoiesis. […] Also seen in preliminary studies, when rHuEPO was dosed at 2000 U/kg the hematocrit of the mice was maximally elevated on day 4 and fell back to near baseline levels by day 7. […] The difference in molecular weights was also taken into consideration (rHuEPO=30,400 daltons, EMP-NfusCG1=62,200 daltons).

[3] = test system: cells that express the EPO receptor; experiment: complement lysis of cells that express the EPO receptor; type: cell-based; details: preliminary studies
Excerpt: It has been shown that mutation of two […] (L) residues, L234 & L235, in the IgG1 lower hinge region to alanine (A) will abrogate the ability of the immunoglobulin to mediate complement dependent cytotoxicity (CDC) and antibody dependant cellular cytotoxicity (ADCC) (Hezereh et al., 2001, J. Virol., vol. 75 (24), 12161-68). […] This may be due to the low number of receptors that are found on erythroid progenitor cells. In addition the in vivo expansion of erythriod progenitors as evidenced by significant increases in hematocrit supports the possible functional irrelevance of immune effector functions. However, while no effector function associated affects have been observed, there remains an interest in introducing these mutations as a precautionary step.

[4] = serum concentrations measured by ELISA in normal mice; type: in vivo
Description: as §1
The serum concentrations of both rHuEPO and EMP-NfusCG1 were measured by ELISA. […] This is consistent with the expected 2 to 8 hour half-life of rHuEPO in rodents. (PRI Expert Report, Part IC2: Toxico-Pharmacological Documentation). In contrast, levels of EMP-NfusCG1 as high as 1.5 ug/mL were detected on day 4 and remained high through the end of the study. The linearity of the clearance profile in FIG. 6 is unusual. It may be that, since the first time point was 3 days after the last injection, the maximum concentration (Cmax) was reached before the first sample was taken and therefore the peak of the exponential curve was not observed. Another explanation is that the absorption and elimination profiles of this novel construct are such that the clearance profile appears linear.

[5] = 50% serum; cited from earlier work

## EMP-NfusCG4: identical to EMP-NfusCG1 except that the hinge and constant regions are of the G4 subtype; SEQ ID NO:51
[1]; average
  EC50: 0.35 nM
[1]; average of assays
  potency relative to EMP-NfusCG1 (fold less), on average: about 10 fold
[1]; worked out from 10 fold vs EMP-NfusCG1 and 5 fold vs rHuEPO
  expected difference to rHuEPO: about 50 fold

## EMP-NfusCG1: EMP-1 peptide, two Gly-Gly-Gly-Ser repeats, human J region, IgG1 hinge, CH2 and CH3; SEQ ID NO:50
[2]
  duration of hematocrit response compared to rHuEPO: elevated levels are maintained for a longer period; also recorded: prolonged
  maximal hematocrit response compared to rHuEPO: significantly higher maximal hematocrit; also recorded: higher maximal response
[3]
  complement lysis of cells that express the EPO receptor: does not mediate complement lysis
[4]; day 4, ELISA
  serum level detected on day 4: ≤ 1500 ng/mL
[4]; normal mice, calculated from serum clearance profile
  approximate half-life: ~259 h

## EMP-1: 20 amino acid peptide with no sequence homology to HuEPO, able (as a dimer) to activate the EPO receptor (GGTYSCHFGPLTWVCKPQGG)
[5]
  ex-vivo half-life: 8 h

From patent US7241733B2, “Mammalian EPO mimetic CH1 deleted mimetibodies, compositions, methods and uses” (Centocor, Inc., priority 2003, dated 2007)
